Results as given in PubChem BioAssay AID1919008 (Molecular Pharmacology Branch, DTP, NCI, 2023).

System: DMS-114 complex spheroids with HUVEC/MSC, growth % test/control
Test: Anticancer human tumor DMS-114 cell line growth inhibition [AhR];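 further: spheroids exposed to agents for 7 days before readout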;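 on viability, T/C: 100% = DMSO vehicle control wells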
Details: for IC50: curve of first compound; for viability, T/C: stronger effect = lower value
Method in brief: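 Agents were dosed in half-log steps down from roughly clinical Cmax, or from 10 microM where Cmax was unknown, alone and with AhR antagonists. Read-out: percent test/control growth of tumor spheroids containing HUVEC and MSC stromal cells.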

[1] = second compound 0.1 µM, first compound 0.0316 µM
[2] = second compound 0.1 µM, first compound 0.1 µM
[3] = second compound 0.1 µM, first compound 0.316 µM
[4] = second compound 0.1 µM, first compound 1 µM
[5] = second compound 0.1 µM, first compound 3.16 µM
[6] = second compound 0.1 µM, first compound 10 µM
[7] = second compound 0.316 µM, first compound 0.0316 µM
[8] = second compound 0.316 µM, first compound 0.1 µM
[9] = second compound 0.316 µM, first compound 0.316 µM
[10] = second compound 0.316 µM, first compound 1 µM
[11] = second compound 0.316 µM, first compound 3.16 µM
[12] = second compound 0.316 µM, first compound 10 µM
[13] = second compound 1 µM, first compound 0.0316 µM
[14] = second compound 1 µM, first compound 0.1 µM
[15] = second compound 1 µM, first compound 0.316 µM
[16] = second compound 1 µM, first compound 1 µM
[17] = second compound 1 µM, first compound 3.16 µM
[18] = second compound 1 µM, first compound 10 µM
[19] = second compound 3.16 µM, first compound 0.0316 µM
[20] = second compound 3.16 µM, first compound 0.1 µM
[21] = second compound 3.16 µM, first compound 0.316 µM
[22] = second compound 3.16 µM, first compound 1 µM
[23] = second compound 3.16 µM, first compound 3.16 µM
[24] = second compound 3.16 µM, first compound 10 µM
[25] = second compound 10 µM, first compound 0.0316 µM
[26] = second compound 10 µM, first compound 0.1 µM
[27] = second compound 10 µM, first compound 0.316 µM
[28] = second compound 10 µM, first compound 1 µM
[29] = second compound 10 µM, first compound 3.16 µM
[30] = second compound 10 µM, first compound 10 µM

Row | Compound | IC50 (second compound 0.1 µM) [nM] | IC50 (second compound 0.316 µM) [nM] | IC50 (second compound 1 µM) [nM] | IC50 (second compound 3.16 µM) [nM] | IC50 (second compound 10 µM) [nM] | viability, T/C [1] [%] | viability, T/C [2] [%] | viability, T/C [3] [%] | viability, T/C [4] [%] | viability, T/C [5] [%] | viability, T/C [6] [%] | viability, T/C [7] [%] | viability, T/C [8] [%] | viability, T/C [9] [%] | viability, T/C [13] [%] | viability, T/C [14] [%] | viability, T/C [19] [%] | viability, T/C [20] [%] | viability, T/C [25] [%] | viability, T/C [26] [%] | other results
1 | COc1cc(Nc2ncc3c(n2)-c2ccc(Cl)cc2C(c2c(F)cccc2OC)=NC3)ccc1C(=O)O + Cc1cncc(-c2nc(NCCc3c[nH]c4ccccc34)c3ncn(C(C)C)c3n2)c1 | < 31.6 | < 31.6 | < 31.6 | < 31.6 | < 31.6 | 34.3 | 23.1 | 44.3 | 53.2 | 65.4 | 72.5 | 28.4 | 22.3 | 40.9 | 30.1 | 21.3 | 24.5 | 14.9 | 16.4 | 8.12 | viability, T/C [10]: 62.1%; viability, T/C [11]: 61.6%; viability, T/C [12]: 64.6%; viability, T/C [15]: 41.7%; viability, T/C [16]: 66%; viability, T/C [17]: 61.7%; viability, T/C [18]: 70.5%; viability, T/C [21]: 36.3%; viability, T/C [22]: 57.2%; viability, T/C [23]: 69.8%; viability, T/C [24]: 63%; viability, T/C [27]: 19%; viability, T/C [28]: 34.3%; viability, T/C [29]: 32.4%; viability, T/C [30]: 38.4%
2 | Cn1ncnc1C1c2n[nH]c(=O)c3cc(F)cc(c23)NC1c1ccc(F)cc1 (stereo not given) + Cc1cncc(-c2nc(NCCc3c[nH]c4ccccc34)c3ncn(C(C)C)c3n2)c1 | > 100 | > 100 | > 100 | > 100 | < 0.316 | 98.2 | 75.5 | – | – | – | – | 84.7 | 80.2 | – | 93.3 | 81.3 | 79.2 | 74.9 | 37.6 | 45.2 | viability, T/C (second compound 0.1 µM, first compound 0.000316 µM): 103%; viability, T/C (second compound 0.1 µM, first compound 0.001 µM): 93.9%; viability, T/C (second compound 0.1 µM, first compound 0.00316 µM): 100%; viability, T/C (second compound 0.1 µM, first compound 0.01 µM): 105%; viability, T/C (second compound 0.316 µM, first compound 0.000316 µM): 87.5%; viability, T/C (second compound 0.316 µM, first compound 0.001 µM): 89.6%; viability, T/C (second compound 0.316 µM, first compound 0.00316 µM): 88.1%; viability, T/C (second compound 0.316 µM, first compound 0.01 µM): 87.1%; viability, T/C (second compound 1 µM, first compound 0.000316 µM): 94.1%; viability, T/C (second compound 1 µM, first compound 0.001 µM): 99%; viability, T/C (second compound 1 µM, first compound 0.00316 µM): 96.8%; viability, T/C (second compound 1 µM, first compound 0.01 µM): 93.6%; viability, T/C (second compound 3.16 µM, first compound 0.000316 µM): 85.4%; viability, T/C (second compound 3.16 µM, first compound 0.001 µM): 95.4%; viability, T/C (second compound 3.16 µM, first compound 0.00316 µM): 89.3%; viability, T/C (second compound 3.16 µM, first compound 0.01 µM): 77.3%; viability, T/C (second compound 10 µM, first compound 0.000316 µM): 47.6%; viability, T/C (second compound 10 µM, first compound 0.001 µM): 50.7%; viability, T/C (second compound 10 µM, first compound 0.00316 µM): 42.7%; viability, T/C (second compound 10 µM, first compound 0.01 µM): 41.6%
3 | NS(=O)(=O)OCC1CC(n2ccc3c(NC4CCc5ccccc54)ncnc32)CC1O (stereo not given) + Cc1cncc(-c2nc(NCCc3c[nH]c4ccccc34)c3ncn(C(C)C)c3n2)c1 | 50.3 | 45.8 | 42 | 40.5 | < 31.6 | 59.4 | 36 | 17.1 | 7.31 | 5.19 | 4.45 | 56.9 | 35.4 | 16.1 | 55 | 34.7 | 54.9 | 32.2 | 42.2 | 24.6 | viability, T/C [10]: 6.55%; viability, T/C [11]: 5.26%; viability, T/C [12]: 3.74%; viability, T/C [15]: 17.6%; viability, T/C [16]: 6.95%; viability, T/C [17]: 4.06%; viability, T/C [18]: 4.6%; viability, T/C [21]: 15.8%; viability, T/C [22]: 4.55%; viability, T/C [23]: 4.39%; viability, T/C [24]: 2.86%; viability, T/C [27]: 12.2%; viability, T/C [28]: 3.49%; viability, T/C [29]: 2.11%; viability, T/C [30]: 1.61%
4 | O=C(C=Cc1cccc(S(=O)(=O)Nc2ccccc2)c1)NO + Cc1cncc(-c2nc(NCCc3c[nH]c4ccccc34)c3ncn(C(C)C)c3n2)c1 | 451 | 402 | 429 | 355 | < 31.6 | 100 | 91.9 | 59.5 | 27.5 | 11.7 | 9.54 | 84.3 | 77.7 | 55.4 | 90.1 | 80 | 78.8 | 75.5 | 46.9 | 34 | viability, T/C [10]: 28.3%; viability, T/C [11]: 10.2%; viability, T/C [12]: 9.73%; viability, T/C [15]: 59.2%; viability, T/C [16]: 26.9%; viability, T/C [17]: 10.7%; viability, T/C [18]: 9.6%; viability, T/C [21]: 52.8%; viability, T/C [22]: 21.3%; viability, T/C [23]: 8.43%; viability, T/C [24]: 7.76%; viability, T/C [27]: 20.1%; viability, T/C [28]: 9.92%; viability, T/C [29]: 4.09%; viability, T/C [30]: 4.15%
